“And” between values parts separate entries of the source, which are not always exact repeats. Equal entries are not always repeated. Inconclusive results and toxic doses are left out. No stated cut-off is given here; in the data, active means T/C of 150% or more; inactive means T/C below 125%.
Tested on: L1210 leukemia ip in BDF1 mice, survival T/C
Assay: NCI In Vivo Anticancer Drug Screen. Data for tumor model L1210 Leukemia (intraperitoneal) in B6D2F1 (BDF1) mice
Details: endpoint: mean survival time, higher = longer survival
Procedure, shortened: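 Ratio derived from survival: compound-dosed mice over vehicle-dosed mice, all bearing a transplantable tumor.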

[1] = dose: 100.0 mg/kg/injection, schedule: Q04DX003 (ip), vehicle: saline with Tween-80
[2] = dose: 200.0 mg/kg/injection, schedule: Q04DX003 (ip), vehicle: saline with Tween-80
[3] = dose: 400.0 mg/kg/injection, schedule: Q04DX003 (ip), vehicle: saline with Tween-80
[4] = dose: 100.0 mg/kg/injection, schedule: Q01DX009 (ip), vehicle: Klucel (hydroxypropylcellulose) (HPC)
[5] = dose: 200.0 mg/kg/injection, schedule: Q01DX009 (ip), vehicle: Klucel (hydroxypropylcellulose) (HPC)
[6] = dose: 200.0 mg/kg/injection, schedule: Q04DX003 (ip), vehicle: Klucel (hydroxypropylcellulose) (HPC)
[7] = dose: 400.0 mg/kg/injection, schedule: Q01DX009 (ip), vehicle: Klucel (hydroxypropylcellulose) (HPC)
[8] = dose: 400.0 mg/kg/injection, schedule: Q04DX003 (ip), vehicle: Klucel (hydroxypropylcellulose) (HPC)
[9] = dose: 100.0 mg/kg/injection, schedule: Q01DX001 (ip), vehicle: saline
[10] = dose: 200.0 mg/kg/injection, schedule: Q01DX001 (ip), vehicle: saline
[11] = dose: 400.0 mg/kg/injection, schedule: Q01DX001 (ip), vehicle: saline
[12] = dose: 50.0 mg/kg/injection, schedule: Q01DX009 (ip), vehicle: saline with Tween-80
[13] = dose: 100.0 mg/kg/injection, schedule: Q04DX002 (ip), vehicle: Klucel (hydroxypropylcellulose) (HPC)
[14] = dose: 200.0 mg/kg/injection, schedule: Q04DX002 (ip), vehicle: Klucel (hydroxypropylcellulose) (HPC)
[15] = dose: 100.0 mg/kg/injection, schedule: Q01DX009 (ip), vehicle: saline with Tween-80
[16] = dose: 200.0 mg/kg/injection, schedule: Q01DX009 (ip), vehicle: saline with Tween-80
[17] = dose: 25.0 mg/kg/injection, schedule: Q01DX009 (ip), vehicle: Klucel (hydroxypropylcellulose) (HPC)
[18] = dose: 50.0 mg/kg/injection, schedule: Q01DX009 (ip), vehicle: Klucel (hydroxypropylcellulose) (HPC)

Measured: T/C

C=C(C=O)C1CCC2=C(CCC3(C)C(C(C)CCCC(C)C)CCC23C)C1(C)CCC#N (stereo unspecified)
inactive: [1] 93 % of control | [2] 96 % of control | [3] 93 % of control

CCOC(=O)c1ccc(NC(=O)Nc2ccc(Cl)cc2)cc1
inactive: [4] 97 % of control | dose: 100.0 mg/kg/injection, schedule: Q04DX003 (ip), vehicle: Klucel (hydroxypropylcellulose) (HPC) 96 % of control | [5] 104 % of control | [6] 104 % of control | [7] 97 % of control | [8] 100 % of control

Clc1nc2ncn3ncnc3c2[nH]1
inactive: dose: 100.0 mg/kg/injection, schedule: Q01DX001 (ip), vehicle: saline with Tween-80 104 % of control | dose: 200.0 mg/kg/injection, schedule: Q01DX001 (ip), vehicle: saline with Tween-80 101 % of control | dose: 400.0 mg/kg/injection, schedule: Q01DX001 (ip), vehicle: saline with Tween-80 92 % of control

CC1=CC(C)(C)Nc2cc(N)ccc21
inactive: dose: 75.0 mg/kg/injection, schedule: Q01DX001 (ip), vehicle: other 110 % of control | dose: 150.0 mg/kg/injection, schedule: Q01DX001 (ip), vehicle: other 105 % of control | dose: 300.0 mg/kg/injection, schedule: Q01DX001 (ip), vehicle: other 91 % of control

O=C(O)CN1C(=O)CNC12CCCCC2
inactive: [9] 95 % of control | [10] 101 % of control | [11] 97 % of control

CCCCn1nnc2c(NN)nc(N)nc21
inactive: dose: 25.0 mg/kg/injection, schedule: Q01DX009 (ip), vehicle: saline with Tween-80 102 % of control | dose: 25.0 mg/kg/injection, schedule: Q04DX003 (ip), vehicle: saline with Tween-80 100 % of control | [12] 101 % of control | dose: 50.0 mg/kg/injection, schedule: Q04DX003 (ip), vehicle: saline with Tween-80 94 % of control | [1] 100 % of control

CCCCCC/C=C/[N+]([O-])=NC(COC)C(C)O (stereo unspecified)
inactive: dose: 5.3 mg/kg/injection, schedule: Q01DX Z (ip), vehicle: carboxymethylcellulose (CMC) 103 % of control | dose: 8.0 mg/kg/injection, schedule: Q01DX Z (ip), vehicle: carboxymethylcellulose (CMC) 106 % of control | dose: 12.0 mg/kg/injection, schedule: Q01DX Z (ip), vehicle: carboxymethylcellulose (CMC) 101 % of control | dose: 18.0 mg/kg/injection, schedule: Q01DX Z (ip), vehicle: carboxymethylcellulose (CMC) 95 % of control

O=C(Nc1ccc(Br)cc1)Oc1ccccc1C(=O)OCc1ccccc1
inactive: [13] 97 % of control | [14] 87 % of control

CNC(=O)Nc1cccc(OC(=O)NC(C)(C)C)c1
inactive: [15] 91 % of control | [16] 93 % of control

CNCC(C)CN1CCCCCc2ccccc21 (stereo unspecified)
inactive: dose: 3.12 mg/kg/injection, schedule: Q01DX009 (ip), vehicle: saline 100 % of control | dose: 6.25 mg/kg/injection, schedule: Q01DX009 (ip), vehicle: saline 93 % of control | dose: 12.5 mg/kg/injection, schedule: Q01DX009 (ip), vehicle: saline 100 % of control | dose: 25.0 mg/kg/injection, schedule: Q01DX009 (ip), vehicle: saline 97 % of control | dose: 50.0 mg/kg/injection, schedule: Q01DX009 (ip), vehicle: saline 104 % of control

O=C(O)[C@@H]1C[C@@H](O)CN1
inactive: [9] 87 % of control | [10] 100 % of control | [11] 94 % of control

O=C(CC(O)(C(F)(F)F)C(F)(F)F)c1ccccc1Br
inactive: [1] 97 % of control | [2] 97 % of control | [3] 95 % of control

CCN(CC)CCNc1ccc(N=Nc2cnc3ccccc3c2)c2ccccc12
inactive: dose: 1.12 mg/kg/injection, schedule: Q01DX009 (ip), vehicle: other 98 % of control | dose: 2.25 mg/kg/injection, schedule: Q01DX009 (ip), vehicle: other 92 % of control | dose: 4.5 mg/kg/injection, schedule: Q01DX009 (ip), vehicle: other 93 % of control | dose: 9.0 mg/kg/injection, schedule: Q01DX009 (ip), vehicle: other 97 % of control | dose: 100.0 mg/kg/injection, schedule: Q01DX001 (ip), vehicle: other 91 % of control | dose: 200.0 mg/kg/injection, schedule: Q01DX001 (ip), vehicle: other 91 % of control | dose: 400.0 mg/kg/injection, schedule: Q01DX001 (ip), vehicle: other 97 % of control

Clc1ccc(CSc2ncc(Br)c(Nc3cc(Cl)ccc3Cl)n2)cc1
inactive: dose: 50.0 mg/kg/injection, schedule: Q01DX Z (ip), vehicle: methylcellulose (MC) 96 % of control | dose: 200.0 mg/kg/injection, schedule: Q01DX Z (ip), vehicle: methylcellulose (MC) 89 % of control

Sc1ccc2ccccc2c1CN(Cc1ccccc1)Cc1c(S)ccc2ccccc12
inactive: [9] 91 % of control | [10] 90 % of control | [11] 91 % of control

FC1(F)SC2CCCCCCC2C1(F)F (stereo unspecified)
inactive: dose: 12.5 mg/kg/injection, schedule: Q01DX009 (ip), vehicle: Klucel (hydroxypropylcellulose) (HPC) 98 % of control | dose: 12.5 mg/kg/injection, schedule: Q04DX003 (ip), vehicle: Klucel (hydroxypropylcellulose) (HPC) 97 % of control | [17] 104 % of control | dose: 25.0 mg/kg/injection, schedule: Q04DX003 (ip), vehicle: Klucel (hydroxypropylcellulose) (HPC) 101 % of control | [18] 100 % of control | dose: 50.0 mg/kg/injection, schedule: Q04DX003 (ip), vehicle: Klucel (hydroxypropylcellulose) (HPC) 95 % of control

CCC(CC)(COS(=O)(=O)c1ccc(C)cc1)COS(=O)(=O)c1ccc(C)cc1
inactive: [4] 93 % of control | [5] 89 % of control | [6] 94 % of control | [7] 88 % of control | [8] 96 % of control

COC(=O)c1ccc(C(=O)CC(=O)c2ccccc2)cc1.COC(=O)c1ccc(C(=O)CC(=O)c2ccccc2)cc1.COC(=O)c1ccc(C(=O)CC(=O)c2ccccc2)cc1.COC(=O)c1ccc(C(=O)CC(=O)c2ccccc2)cc1.COC(=O)c1ccc(C(=O)CC(=O)c2ccccc2)cc1.[Th]
inactive: dose: 25.0 mg/kg/injection, schedule: Q01DX005 (ip), vehicle: Klucel (hydroxypropylcellulose) (HPC) 89 % of control | [17] 100 % of control | dose: 50.0 mg/kg/injection, schedule: Q01DX005 (ip), vehicle: Klucel (hydroxypropylcellulose) (HPC) 93 % of control | [18] 100 % of control | dose: 100.0 mg/kg/injection, schedule: Q01DX005 (ip), vehicle: Klucel (hydroxypropylcellulose) (HPC) 93 % of control and 89 % of control | [4] 93 % of control | [13] 96 % of control | [14] 100 % of control | dose: 400.0 mg/kg/injection, schedule: Q04DX002 (ip), vehicle: Klucel (hydroxypropylcellulose) (HPC) 93 % of control

Cc1cc(C)c(C)c(OC(=O)Nc2ccc(Cl)cc2C(F)(F)F)c1
inactive: [12] 92 % of control | [15] 103 % of control | [16] 106 % of control

Cc1cc2ccccc2c(N)c1C#N
inactive: [15] 102 % of control and 106 % of control | dose: 100.0 mg/kg/injection, schedule: Q04DX002 (ip), vehicle: saline with Tween-80 93 % of control and 100 % of control | [16] 92 % of control and 90 % of control | dose: 200.0 mg/kg/injection, schedule: Q04DX002 (ip), vehicle: saline with Tween-80 91 % of control | dose: 400.0 mg/kg/injection, schedule: Q01DX009 (ip), vehicle: saline with Tween-80 95 % of control | dose: 400.0 mg/kg/injection, schedule: Q04DX002 (ip), vehicle: saline with Tween-80 100 % of control and 88 % of control

COC(=O)c1ccc(N(C)CCC(=O)COC(C)=O)cc1
inactive: [9] 103 % of control | [10] 97 % of control | [11] 95 % of control

Cc1ccc2nc(C)cc(NC(=O)c3ccccc3)c2c1
inactive: dose: 5.0 mg/kg/injection, schedule: Q01DX001 (ip), vehicle: saline 110 % of control | dose: 10.0 mg/kg/injection, schedule: Q01DX001 (ip), vehicle: saline 95 % of control | dose: 20.0 mg/kg/injection, schedule: Q01DX001 (ip), vehicle: saline 100 % of control | dose: 40.0 mg/kg/injection, schedule: Q01DX001 (ip), vehicle: saline 105 % of control | dose: 80.0 mg/kg/injection, schedule: Q01DX001 (ip), vehicle: saline 106 % of control

Reference: PubChem BioAssay AID248 (DTP/NCI, 2004)
